# Publication PMC5428013, “Peptide-Au Clusters Induced Tumor Cells Apoptosis via Targeting Glutathione Peroxidase-1: The Molecular Dynamics Assisted Experimental Studies” (Scientific Reports, 2017)
# Experiments:
# [1] = tested on: A549 cells; assay: Uptake of Au25P1_9 by A549 cells determined by ICP-MS; format: cell-based, human; settings: Au dose 0, 100, 200, 400, 800 μM, 48 h
# Procedure: The cells were cultured in medium supplemented with 10% fetal bovine serum and 1% penicillin and streptomycin in a culture flask (25 cm^2), reseeded every 2–4 days to maintain subconfluency and kept in humidified atmosphere of 95% air and 5% CO2 at 37 °C. After cells reaching 80% confluence during the exponential growth in culture flask, the cells were harvested and subcultured on 6-well plate (at the density of 1 × 10^5 cells/well) for 24 h. Then the medium was discarded and fresh culture medium with Au25P1_9 at different doses was added to make cells exposed to final Au doses at 0, 100, 200, 400 and 800 μM, respectively. After another 48 h incubation, the cells were treated with trypsin and collected, and then washed thrice with PBS. 5 × 10^5 cells of each sample counted by flow cytometry were predigested by HNO3 and H2O2 at a volume ratio of 3:1 for 12 h and further digested by aqua regia at 160 °C, and then diluted to 10 mL aqueous solution with 1% HCl and 2% HNO3. Finally, the amount of Au25P1_9 taken into cells was measured by ICP-MS with Au calibration curve.
# [2] = tested on: A549 cells; assay: Intracellular ROS level by flow cytometry (CM-H2DCFDA); format: cell-based, human; settings: 48 h
# Procedure: For CLSM observation, cells were prior cultured on glass-bottom dishes. Au25P1_9 was added to culture medium and the final Au dose was 800 µM. After 48 h. the cells were washed three times with PBS and incubated with 5 µM CM-H2DCFDA, at 37 °C under darkness for 30 min. Before CLSM observation, the culture medium was discarded and the cells were washed three times with PBS, supplemented with fresh culture medium. Finally, ROS in cells were highlighted by green fluorescence emission of CM-H2DCFDA, imaged under Nikon Ti-e microscope with excitation at wavelengths of 488 nm. For flow cytometry analysis, cells were prior seeded on 6-well plate (at the density of 1 × 10^5 cells/well) for 24 h. Then the medium was discarded and fresh culture medium containing Au25P1_9 with Au dose at 800 μM was added. For another 48 h incubation, the cells were washed thrice with PBS, and incubated with 5 µM CM-H2DCFDA at 37 °C under darkness for 30 min. After washing with PBS, the cells were collected and suspended in ice cold PBS. Fluorescence intensity of 20,000 events was recorded using an Accuri C6 flow cytometer and the level of intracellular ROS was analyzed by Cflow software.
sequence,measurement,setting,value
"CCYGGPEEEEEVG [Au25P1_9, Au25 cluster coated by nine P1 peptides (…)]",cellular uptake,[1],dosage dependent manner
same,FL1-H fluorescence intensity (ROS),"[2]; Au dose 800 µM, with CM-H2DCFDA, CM-H2DCFDA only control 20088, untreated 2674",43464
same,intracellular ROS level relative to control,"[2]; Au dose of 800 μM, 5 µM CM-H2DCFDA, flow cytometry, 20,000 events",~ 210%
